Data from US20220008566A1, “Pharmaceutical Composition Comprising a Radiolabeled GRPR Antagonist and a Surfactant” (Advanced Accelerator Applications International SA, priority 2018, published 2022).

Tests used:
[1] = tested on: non-tumor bearing balb c nu/nu male mice; experiment: Kidney and pancreas toxicity of 177Lu-NeoBOMB1 treatment; assay type: in vivo; conditions: for histopathology of the kidneys: 24 weeks after therapy
Protocol: To determine the effect of treatment on pancreas and kidney tissue, non-tumor bearing balb c nu/nu male mice received the same treatment as the animals included in the efficacy study. At 2 different time points after the last therapeutic injection (12 weeks and 24 weeks p.i.) animals were euthanized and pancreas and kidney tissue was collected for pathological analysis.
(§1) In both studies, animal weight and/or tumor size was measured bi-weekly. When tumor size was ≥2000 mm^3 or a decrease in animal weight ≥20% within 48 hours was observed, animals were removed from the study. In the efficacy study, animals were followed until the maximum allowed age of 230 days was reached.
Pancreatic and kidney tissue collected for pathological analysis was formalin fixed and paraffin embedded. Hematoxylin and eosin staining was performed on […] thick tissue slices using the Ventana Symphony™ H&E protocol (Ventana), to determine differences in tissue structure between the 4 treatment groups. In total 4 tissue slices, […] apart from each other were evaluated of each organ. The hematoxylin and eosin staining's were evaluated by experienced pathologists.

[2] = Dosimetry: estimated absorbed dose to tumor, pancreas and kidneys (RADAR realistic mouse model)
Description: The RADAR realistic mouse model (Keenan M A, Stabin M G, Segars W P, Fernald M J. RADAR realistic animal model series for dose assessment. J Nucl Med. 2010; 51:471-476) with a weight of 25 g and data from previously published biodistribution and pharmacokinetic studies (Dalm S U, Bakker I L, de Blois E, et al. 68Ga/^177Lu-NeoBOMB1, a Novel Radiolabeled GRPR Antagonist for Theranostic Use in Oncology. J Nucl Med. 2017; 58:293-299) were used to calculate the dose to the tumor, pancreas and kidneys, when animals were treated with 3×30 MBq/300 pmol, […] or 3×60 MBq/600 pmol ^177Lu-NeoBOMB1. The biodistribution data of our previously published paper (Dalm S U, Bakker I L, de Blois E, et al. ^68Ga/^177Lu-NeoBOMB1, a Novel Radiolabeled GRPR Antagonist for Theranostic Use in Oncology. J Nucl Med. 2017; 58:293-299) were fitted with exponential curves to define the time-activity curve in the tumor and organs. The time integrated activities for ^177Lu were obtained by integrating these exponential curves folded with the 177Lu decay curve (T1/2=6.647 d). Absorbed doses per administered activities were obtained by multiplying with the organ S-values from Keenan et al. (Keenan M A, Stabin M G, Segars W P, Fernald M J. RADAR realistic animal model series for dose assessment. J Nucl Med. 2010; 51:471-476) or by using the spherical node S-values (Stabin M G, Konijnenberg M W. Re-evaluation of absorbed fractions for photons and electrons in spheres of various sizes. J Nucl Med. 2000; 41:149-160) for a 340 mg tumor.
An estimation was made of the radioactivity dose to the tumor, pancreas and kidneys after treatment with 3×30 MBq/300 pmol, 3×40 MBq/400 pmol or 3×60 MBq/600 pmol ^177Lu-NeoBOMB1 (See Table 3 below). For this it was assumed that tumor and organ uptake was similar after each injection.

PC-3 cells = experiment: Therapeutic efficacy of 177Lu-NeoBOMB1 in PC-3 xenografted mice; assay type: in vivo, balb c nu/nu mice; conditions: for time to reach a tumor size of 2000 mm^3: 1 week apart, extrapolated growth curves; for animals without any tumor regrowth after a complete response: n=15
Protocol: Male balb c nu/nu mice were subcutaneously inoculated on the right shoulder with 200 μL 4×10^6 PC-3 cells (American Type Culture Collection) in inoculation medium (⅓ Matrigel high concentration (Corning)+⅔ Hank's balanced salt solution (Thermofisher Scientific)). Four weeks post tumor cell inoculation when an average tumor size of 543+177 mm^3 was reached, animals were divided in four groups: control group (n=10) and therapy group 1-3 (n=15 per group). To determine the efficacy of ^177Lu-NeoBOMB1, animals received either 3 sham injections (control group), 3×30 MBq/300 pmol ^177Lu-NeoBOMB1 (group 1), 3×40 MBq/400 pmol ^177Lu-NeoBOMB1 (group 2) or 3×60 MBq/600 pmol ^177Lu-NeoBOMB1 (group 3) under isoflurane/O2 anesthesia. Injections were administered intravenously and injections were given 1 week apart.
as §1
The tumor doubling times were determined by fitting an exponential growth function to the tumor volume over time in the control group. In the therapy groups an interval with exponential tumor volume decline was fitted with onset of regrowth after the nadir time. The growth curves were extrapolated beyond the censoring time points for mice with too large tumors (>2000 mm^3) to determine average growth statistics. Tumor growth delay times were individually determined by comparing the times needed to reach the maximum tumor size of 2000 mm^3 with the mean time found in the control group.
Prism software (version 5.01, GraphPad Software) was used for statistical analyses. P values […] were considered statistically significant. The difference in tumor volume growths and delay times for the 4 groups were analyzed with the One-way ANOVA test with Bonferroni's multiple comparison test. Curve fitting was performed according to the least/square fit with the Pearson R^2 to quantify its goodness.

[3] = 3×30 MBq/300 pmol, 1st injection
[4] = 3×30 MBq/300 pmol, 2nd injection
[5] = 3×30 MBq/300 pmol, 3rd injection
[6] = 3×40 MBq/400 pmol, 1st injection
[7] = 3×40 MBq/400 pmol, 2nd injection
[8] = 3×40 MBq/400 pmol, 3rd injection
[9] = 3×60 MBq/600 pmol, 1st injection
[10] = 3×60 MBq/600 pmol, 2nd injection
[11] = 3×60 MBq/600 pmol, 3rd injection

CC(C)CC(CC(C)C)NC(=O)[C@H](Cc1cnc[nH]1)NC(=O)CNC(=O)[C@@H](NC(=O)[C@H](C)NC(=O)[C@H](Cc1c[nH]c2ccccc12)NC(=O)[C@H](CCC(N)=O)NC(=O)[C@@H](Cc1ccccc1)NC(=O)COCC(=O)Nc1ccc(CNC(=O)CN2CCN(CC(=O)O)CCN(CC(=O)O)CCN(CC(=O)O)CC2)cc1)C(C)C [^177Lu-NeoBOMB1, metal not drawn]
histopathology of the kidneys, lymphocyte infiltration ([1]; 12 and 24 weeks after last injection, in control as well as treated animals, not related to therapy): small areas with lymphocyte infiltration
histopathology of the pancreas ([1]; H&E, 12 and 24 weeks after last injection): no tissue damage or other abnormalities
animal weight ([1]; all groups, follow-up up to 24 weeks): no critical decrease in weight
histopathology of the kidneys ([1]; group 3 (3×60 MBq/600 pmol), both animals): mild chronic inflammatory response
histopathology of the kidneys ([1]; lowest dose (3×30 MBq/300 pmol), ID: 864, unlikely related to therapy): atrophy and fibrosis were observed in the kidneys of only one animal
decrease in weight within 48 h ([1]; one animal from Group 1 (ID: 869)): less than 10%
Cumulative absorbed dose, Kidney [2, 3]: 1.7 Gy
Cumulative absorbed dose, Pancreas [2, 3]: 7.9 Gy
Cumulative absorbed dose, Tumor [2, 3]: 17 Gy
Cumulative absorbed dose, Kidney [2, 4]: 3.4 Gy
Cumulative absorbed dose, Pancreas [2, 4]: 16 Gy
Cumulative absorbed dose, Tumor [2, 4]: 34 Gy
Cumulative absorbed dose, Kidney [2, 5]: 5.1 Gy
Cumulative absorbed dose, Pancreas [2, 5]: 32 Gy
Cumulative absorbed dose, Tumor [2, 5]: 68 Gy
Cumulative absorbed dose, Kidney [2, 6]: 2.3 Gy
Cumulative absorbed dose, Pancreas [2, 6]: 11 Gy
Cumulative absorbed dose, Tumor [2, 6]: 23 Gy
Cumulative absorbed dose, Kidney [2, 7]: 4.5 Gy
Cumulative absorbed dose, Pancreas [2, 7]: 21 Gy
Cumulative absorbed dose, Tumor [2, 7]: 46 Gy
Cumulative absorbed dose, Kidney [2, 8]: 6.8 Gy
Cumulative absorbed dose, Pancreas [2, 8]: 42 Gy
Cumulative absorbed dose, Tumor [2, 8]: 91 Gy
Cumulative absorbed dose, Kidney [2, 9]: 3.4 Gy
Cumulative absorbed dose, Pancreas [2, 9]: 16 Gy
Cumulative absorbed dose, Tumor [2, 9]: 34 Gy
Cumulative absorbed dose, Kidney [2, 10]: 6.8 Gy
Cumulative absorbed dose, Pancreas [2, 10]: 32 Gy
Cumulative absorbed dose, Tumor [2, 10]: 68 Gy
Cumulative absorbed dose, Kidney [2, 11]: 10 Gy
Cumulative absorbed dose, Pancreas [2, 11]: 64 Gy
Cumulative absorbed dose, Tumor [2, 11]: 137 Gy
therapy efficacy (PC-3 cells; all treatment groups vs control group): effective
Median survival (PC-3 cells; group 1, 3×30 MBq/300 pmol): 82 days
time to reach a tumor size of 2000 mm^3 (PC-3 cells; group 1, 3×30 MBq/300 pmol i.v.): 97 ± 59 days
animals without any tumor regrowth after a complete response (PC-3 cells; group 1, 3×30 MBq/300 pmol): two
Median survival (PC-3 cells; group 2, 3×40 MBq/400 pmol): 89 days
time to reach a tumor size of 2000 mm^3 (PC-3 cells; group 2, 3×40 MBq/400 pmol i.v.): 103 ± 66 days
animals without any tumor regrowth after a complete response (PC-3 cells; group 2, 3×40 MBq/400 pmol): one
Median survival (PC-3 cells; group 3, 3×60 MBq/600 pmol): 99 days
time to reach a tumor size of 2000 mm^3 (PC-3 cells; group 3, 3×60 MBq/600 pmol i.v.): 95 ± 26 days
